“And” between values parts separate entries of the source, which are not always exact repeats. Identical values can stand only once. Toxic doses and inconclusive results are not listed.
System: L1210 leukemia ip in BDF1 mice, survival T/C
Experiment: NCI In Vivo Anticancer Drug Screen. Data for tumor model L1210 Leukemia (intraperitoneal) in B6D2F1 (BDF1) mice
Settings: endpoint: mean survival time, higher = longer survival
How it was run: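 Survival endpoint. Drug-treated group vs vehicle group, expressed as T divided by C. Tumor passaged by transplantation.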

[1] = dose: 100.0 mg/kg/injection, schedule: Q01DX009 (ip), vehicle: Klucel (hydroxypropylcellulose) (HPC)
[2] = dose: 100.0 mg/kg/injection, schedule: Q04DX003 (ip), vehicle: Klucel (hydroxypropylcellulose) (HPC)
[3] = dose: 200.0 mg/kg/injection, schedule: Q01DX009 (ip), vehicle: Klucel (hydroxypropylcellulose) (HPC)
[4] = dose: 200.0 mg/kg/injection, schedule: Q04DX003 (ip), vehicle: Klucel (hydroxypropylcellulose) (HPC)
[5] = dose: 400.0 mg/kg/injection, schedule: Q01DX009 (ip), vehicle: Klucel (hydroxypropylcellulose) (HPC)
[6] = dose: 400.0 mg/kg/injection, schedule: Q04DX003 (ip), vehicle: Klucel (hydroxypropylcellulose) (HPC)
[7] = dose: 100.0 mg/kg/injection, schedule: Q01DX001 (ip), vehicle: Klucel (hydroxypropylcellulose) (HPC)
[8] = dose: 200.0 mg/kg/injection, schedule: Q01DX001 (ip), vehicle: Klucel (hydroxypropylcellulose) (HPC)
[9] = dose: 400.0 mg/kg/injection, schedule: Q01DX001 (ip), vehicle: Klucel (hydroxypropylcellulose) (HPC)
[10] = dose: 100.0 mg/kg/injection, schedule: Q01DX009 (ip), vehicle: saline with Tween-80
[11] = dose: 200.0 mg/kg/injection, schedule: Q01DX009 (ip), vehicle: saline with Tween-80
[12] = dose: 400.0 mg/kg/injection, schedule: Q01DX009 (ip), vehicle: saline with Tween-80
[13] = dose: 100.0 mg/kg/injection, schedule: Q04DX002 (ip), vehicle: saline with Tween-80
[14] = dose: 200.0 mg/kg/injection, schedule: Q04DX002 (ip), vehicle: saline with Tween-80
[15] = dose: 400.0 mg/kg/injection, schedule: Q04DX002 (ip), vehicle: saline with Tween-80
[16] = dose: 50.0 mg/kg/injection, schedule: Q01DX001 (ip), vehicle: saline
[17] = dose: 100.0 mg/kg/injection, schedule: Q01DX001 (ip), vehicle: saline
[18] = dose: 200.0 mg/kg/injection, schedule: Q01DX001 (ip), vehicle: saline
[19] = dose: 400.0 mg/kg/injection, schedule: Q01DX001 (ip), vehicle: saline
[20] = dose: 50.0 mg/kg/injection, schedule: Q01DX009 (ip), vehicle: Klucel (hydroxypropylcellulose) (HPC)

`CCCCN/C(C)=C/C(=O)/C=C(\C)NCCCC` was tested, and the T/C [1] was 94 % of control, the T/C [2] was 117 % of control and the T/C [3] was 110 % of control. The T/C [4] was 96 % of control, the T/C [5] was 95 % of control and the T/C [6] was 100 % of control.

In the case of `Cc1cccc(NC(=O)Nc2ccc(F)cc2)n1`, the T/C [7] is reported as 94 % of control, the T/C [1] is reported as 98 % of control and the T/C (dose: 100.0 mg/kg/injection, schedule: Q04DX002 (ip), vehicle: Klucel (hydroxypropylcellulose) (HPC)) is reported as 98 % of control and 103 % of control. For the same compound, the T/C [2] was 97 % of control, the T/C [8] was 96 % of control and the T/C [3] was 95 % of control. For the same compound, the T/C (dose: 200.0 mg/kg/injection, schedule: Q04DX002 (ip), vehicle: Klucel (hydroxypropylcellulose) (HPC)) was 100 % of control and 102 % of control, the T/C [4] was 100 % of control and the T/C [9] was 86 % of control. The T/C [5] was 95 % of control, the T/C (dose: 400.0 mg/kg/injection, schedule: Q04DX002 (ip), vehicle: Klucel (hydroxypropylcellulose) (HPC)) was 105 % of control and 107 % of control and the T/C [6] was 107 % of control.

In the case of `CCOC(=O)C1OC12c1cccc3cccc(c13)C21OC1C(=O)OCC` (stereo not given), the T/C [10] is reported as 92 % of control, the T/C [11] is reported as 90 % of control and the T/C [12] is reported as 98 % of control.

For `O=C(Nc1ccccc1C(F)(F)F)Oc1ccc(Cl)cc1Cc1ccccc1`, the T/C [10] was 93 % of control, the T/C [13] was 117 % of control and the T/C [11] was 101 % of control. For the same compound, the T/C [14] was 98 % of control, the T/C [12] was 101 % of control and the T/C [15] was 98 % of control.

`ON=C1C2CC3CC(C2)CC1C3` was tested, and the T/C (dose: 75.0 mg/kg/injection, schedule: Q01DX001 (ip), vehicle: other) was 96 % of control, the T/C (dose: 150.0 mg/kg/injection, schedule: Q01DX001 (ip), vehicle: other) was 94 % of control and the T/C (dose: 300.0 mg/kg/injection, schedule: Q01DX001 (ip), vehicle: other) was 93 % of control.

In the case of `COc1cc(N)c2ncccc2c1[N+](=O)[O-]`, the T/C [16] is reported as 112 % of control, the T/C [17] is reported as 106 % of control and the T/C [18] is reported as 106 % of control. The T/C [19] was 104 % of control.

In the case of `CC(C)NC(C)C`, the T/C [7] is reported as 104 % of control, the T/C [8] is reported as 101 % of control and the T/C [9] is reported as 107 % of control.

In the case of `COc1ccc(C2(CO)OC(CO)C(O)C2O)cc1` (stereo not given), the T/C [16] is reported as 105 % of control, the T/C [17] is reported as 103 % of control and the T/C [18] is reported as 97 % of control. For the same compound, the T/C [19] was 94 % of control.

`O=C1C(N2CCOCC2)=C(N2CC2)C(=O)C(N2CCOCC2)=C1N1CC1` was tested, and the T/C (dose: 0.19 mg/kg/injection, schedule: Q04DX003 (ip), vehicle: saline) was 92 % of control and 102 % of control, the T/C (dose: 0.37 mg/kg/injection, schedule: Q04DX003 (ip), vehicle: saline) was 94 % of control and 107 % of control and the T/C (dose: 0.75 mg/kg/injection, schedule: Q01DX009 (ip), vehicle: saline) was 105 % of control and 118 % of control. The T/C (dose: 0.75 mg/kg/injection, schedule: Q04DX003 (ip), vehicle: saline) was 107 % of control and 113 % of control, the T/C (dose: 1.5 mg/kg/injection, schedule: Q01DX009 (ip), vehicle: saline) was 120 % of control and the T/C (dose: 1.5 mg/kg/injection, schedule: Q04DX003 (ip), vehicle: saline) was 105 % of control. The T/C (dose: 3.0 mg/kg/injection, schedule: Q04DX003 (ip), vehicle: saline) was 122 % of control, the T/C (dose: 3.12 mg/kg/injection, schedule: Q01DX001 (ip), vehicle: saline) was 86 % of control and the T/C (dose: 12.0 mg/kg/injection, schedule: Q04DX003 (ip), vehicle: saline) was 115 % of control.

For `O=C(CCc1ccccc1)Nc1ccc(F)cc1`, the T/C (dose: 100.0 mg/kg/injection, schedule: Q01DX001 (ip), vehicle: saline with Tween-80) was 95 % of control, the T/C [10] was 97 % of control and 106 % of control and the T/C [13] was 94 % of control and 98 % of control. For the same compound, the T/C (dose: 200.0 mg/kg/injection, schedule: Q01DX001 (ip), vehicle: saline with Tween-80) was 95 % of control, the T/C [11] was 93 % of control and 95 % of control and the T/C [14] was 94 % of control and 102 % of control. The T/C (dose: 400.0 mg/kg/injection, schedule: Q01DX001 (ip), vehicle: saline with Tween-80) was 94 % of control, the T/C [12] was 98 % of control and 101 % of control and the T/C [15] was 94 % of control and 97 % of control.

`C=NN1CCOC1=O` was tested, and the T/C (dose: 100.0 mg/kg/injection, schedule: Q04DX002 (ip), vehicle: saline) was 106 % of control, the T/C (dose: 200.0 mg/kg/injection, schedule: Q04DX002 (ip), vehicle: saline) was 91 % of control and the T/C (dose: 400.0 mg/kg/injection, schedule: Q04DX002 (ip), vehicle: saline) was 111 % of control.

`CNC(=O)c1cc(NC(=O)Nc2ccc(C3=NCCN3)cc2)cc(NC(=O)Nc2ccc(C3=NCCN3)cc2)c1` was tested, and the T/C (dose: 15.0 mg/kg/injection, schedule: Q01DX Z (ip), vehicle: saline) was 122 % of control, the T/C (dose: 60.0 mg/kg/injection, schedule: Q01DX Z (ip), vehicle: saline) was 216 % of control and the T/C (dose: 60.0 mg/kg/injection, schedule: Q01DX Z (oral), vehicle: saline) was 103 % of control. The T/C (dose: 120.0 mg/kg/injection, schedule: Q01DX Z (ip), vehicle: saline) was 114 % of control, the T/C (dose: 120.0 mg/kg/injection, schedule: Q01DX Z (oral), vehicle: saline) was 98 % of control and the T/C (dose: 240.0 mg/kg/injection, schedule: Q01DX Z (oral), vehicle: saline) was 106 % of control. The T/C (dose: 480.0 mg/kg/injection, schedule: Q01DX Z (oral), vehicle: saline) was 93 % of control.

In the case of `Cc1ccccc1N1CCN(CCO)CC1`, the T/C (dose: 12.5 mg/kg/injection, schedule: Q01DX001 (ip), vehicle: saline) is reported as 105 % of control, the T/C (dose: 12.5 mg/kg/injection, schedule: Q04DX003 (ip), vehicle: saline) is reported as 100 % of control and the T/C (dose: 25.0 mg/kg/injection, schedule: Q01DX001 (ip), vehicle: saline) is reported as 105 % of control. The T/C (dose: 25.0 mg/kg/injection, schedule: Q04DX003 (ip), vehicle: saline) was 110 % of control, the T/C [16] was 100 % of control and the T/C (dose: 50.0 mg/kg/injection, schedule: Q04DX003 (ip), vehicle: saline) was 110 % of control.

With `COC(=O)c1ccccc1NC(=O)Nc1ccccc1Cl` the T/C [20] was 88 % of control, the T/C [1] was 88 % of control and the T/C [2] was 89 % of control. For the same compound, the T/C [4] was 92 % of control.

In the case of `S=P(NCCS)(N1CC1)N1CC1`, the T/C [17] is reported as 106 % of control, the T/C [18] is reported as 101 % of control and the T/C [19] is reported as 101 % of control.

In the case of `CCN(CC)C(=O)c1c(Cl)n(C)c2ccccc12`, the T/C (dose: 12.5 mg/kg/injection, schedule: Q04DX003 (ip), vehicle: Klucel (hydroxypropylcellulose) (HPC)) is reported as 95 % of control, the T/C (dose: 25.0 mg/kg/injection, schedule: Q04DX003 (ip), vehicle: Klucel (hydroxypropylcellulose) (HPC)) is reported as 104 % of control and the T/C (dose: 50.0 mg/kg/injection, schedule: Q04DX003 (ip), vehicle: Klucel (hydroxypropylcellulose) (HPC)) is reported as 104 % of control.

With `O=S(=O)(ON=C1C=CC(=NOS(=O)(=O)c2ccccc2)C=C1)c1ccccc1` the T/C [16] was 96 % of control, the T/C [17] was 93 % of control and the T/C [18] was 93 % of control. The T/C [19] was 93 % of control.

With `Cc1ccc(S(=O)(=O)OCC2OCC(O)C(O)C2O)cc1` (stereo not given) the T/C (dose: 100.0 mg/kg/injection, schedule: Q04DX003 (ip), vehicle: saline with Tween-80) was 86 % of control, the T/C (dose: 200.0 mg/kg/injection, schedule: Q04DX003 (ip), vehicle: saline with Tween-80) was 86 % of control and the T/C (dose: 400.0 mg/kg/injection, schedule: Q04DX003 (ip), vehicle: saline with Tween-80) was 86 % of control.

For `NC(=O)c1cc(Br)ccc1O`, the T/C [20] was 89 % of control, the T/C [1] was 92 % of control and the T/C [3] was 95 % of control.

In the case of `N#CC(c1ccccc1)c1cccc(C(=O)O)c1` (stereo not given), the T/C (dose: 100.0 mg/kg/injection, schedule: Q01DX001 (ip), vehicle: carboxymethylcellulose (CMC)) is reported as 105 % of control, the T/C (dose: 200.0 mg/kg/injection, schedule: Q01DX001 (ip), vehicle: carboxymethylcellulose (CMC)) is reported as 86 % of control and the T/C (dose: 400.0 mg/kg/injection, schedule: Q01DX001 (ip), vehicle: carboxymethylcellulose (CMC)) is reported as 91 % of control.

With `CCCN(CCC)C(=S)CC` the T/C [13] was 94 % of control and the T/C [14] was 98 % of control.

Source: PubChem BioAssay AID248 (DTP/NCI, 2004)
